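Following 48 hours of exposure in 96-well plates, responses at five concentrations were used to interpolate endpoints linearly. GI50 is the concentration that inhibits growth by half.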 The source made the active and inactive calls. Rule as the data show it: active = GI50 up to about 1.1 µM and inactive = higher.
Experiments:
Test in all cases: NCI anticancer screen, dose series, 48 h
[1] = system: 786-0
[2] = system: A498
[3] = system: A549
[4] = system: ACHN
[5] = system: BT-549
[6] = system: CAKI-1
[7] = system: COLO 205
[8] = system: DU-145
[9] = system: EKVX
[10] = system: HCT-116
[11] = system: HCT-15
[12] = system: HOP-62
[13] = system: HOP-92
[14] = system: HT-29
[15] = system: Hs-578T
[16] = system: IGROV-1
[17] = system: K562
[18] = system: KM12
[19] = system: LOX IMVI
[20] = system: M14
[21] = system: MCF7
[22] = system: MDA-MB-231
[23] = system: MDA-MB-435
[24] = system: MDA-N
[25] = system: MOLT-4
[26] = system: Malme-3M
[27] = system: NCI-H226
[28] = system: NCI-H23
[29] = system: NCI-H460
[30] = system: NCI-H522
[31] = system: NCI/ADR-RES
[32] = system: OVCAR-3
[33] = system: OVCAR-4
[34] = system: OVCAR-5
[35] = system: OVCAR-8
[36] = system: PC-3
[37] = system: RPMI-8226
[38] = system: RXF 393
[39] = system: SF-268
[40] = system: SF-295
[41] = system: SF-539
[42] = system: SK-MEL-28
[43] = system: SK-MEL-2
[44] = system: SK-MEL-5
[45] = system: SK-OV-3
[46] = system: SN12C
[47] = system: SNB-19
[48] = system: SNB-75
[49] = system: SR
[50] = system: SW-620
[51] = system: T47D
[52] = system: TK-10
[53] = system: U-251
[54] = system: UACC-257
[55] = system: UACC-62
[56] = system: UO-31
[57] = system: CCRF-CEM
[58] = system: HCC 2998
[59] = system: HL-60

Compound: O=C(O)C1CCCN1Cc1ccc2c(c1)OCO2 (stereo not given)
- GI50 [1]: > 100 µM (inactive)
- GI50 [2]: > 100 µM (inactive)
- GI50 [3]: > 100 µM (inactive)
- GI50 [4]: > 100 µM (inactive)
- GI50 [5]: > 100 µM (inactive)
- GI50 [6]: > 100 µM (inactive)
- GI50 [7]: > 100 µM (inactive)
- GI50 [8]: > 100 µM (inactive)
- GI50 [9]: > 100 µM (inactive)
- GI50 [10]: > 100 µM (inactive)
- GI50 [11]: > 100 µM
- GI50 [12]: > 100 µM (inactive)
- GI50 [13]: > 100 µM (inactive)
- GI50 [14]: > 100 µM (inactive)
- GI50 [15]: > 100 µM (inactive)
- GI50 [16]: > 100 µM (inactive)
- GI50 [17]: > 100 µM (inactive)
- GI50 [18]: > 100 µM (inactive)
- GI50 [19]: > 100 µM (inactive)
- GI50 [20]: > 100 µM (inactive)
- GI50 [21]: > 100 µM (inactive)
- GI50 [22]: > 100 µM (inactive)
- GI50 [23]: > 100 µM (inactive)
- GI50 [24]: > 100 µM (inactive)
- GI50 [25]: > 100 µM (inactive)
- GI50 [26]: > 100 µM (inactive)
- GI50 [27]: > 100 µM (inactive)
- GI50 [28]: > 100 µM (inactive)
- GI50 [29]: > 100 µM (inactive)
- GI50 [30]: > 100 µM (inactive)
- GI50 [31]: > 100 µM (inactive)
- GI50 [32]: > 100 µM (inactive)
- GI50 [33]: > 100 µM (inactive)
- GI50 [34]: > 100 µM (inactive)
- GI50 [35]: > 100 µM (inactive)
- GI50 [36]: > 100 µM (inactive)
- GI50 [37]: > 100 µM (inactive)
- GI50 [38]: > 100 µM (inactive)
- GI50 [39]: > 100 µM (inactive)
- GI50 [40]: > 100 µM (inactive)
- GI50 [41]: > 100 µM (inactive)
- GI50 [42]: > 100 µM (inactive)
- GI50 [43]: > 100 µM (inactive)
- GI50 [44]: > 100 µM (inactive)
- GI50 [45]: > 100 µM (inactive)
- GI50 [46]: > 100 µM (inactive)
- GI50 [47]: > 100 µM (inactive)
- GI50 [48]: 18.4 µM (inactive)
- GI50 [49]: 14.5 µM (inactive)
- GI50 [50]: > 100 µM (inactive)
- GI50 [51]: > 100 µM (inactive)
- GI50 [52]: > 100 µM (inactive)
- GI50 [53]: > 100 µM (inactive)
- GI50 [54]: > 100 µM (inactive)
- GI50 [55]: > 100 µM (inactive)
- GI50 [56]: > 100 µM (inactive)

Compound: N#Cc1nc(-c2ccco2)oc1N
- GI50 [1]: > 10 µM (inactive)
- GI50 [3]: > 10 µM (inactive)
- GI50 [4]: > 10 µM (inactive)
- GI50 [5]: > 10 µM (inactive)
- GI50 [6]: > 10 µM (inactive)
- GI50 [57]: > 10 µM (inactive)
- GI50 [7]: > 10 µM (inactive)
- GI50 [8]: > 10 µM (inactive)
- GI50 [9]: > 10 µM (inactive)
- GI50 [58]: > 10 µM (inactive)
- GI50 [10]: > 10 µM (inactive)
- GI50 [11]: > 10 µM
- GI50 [59]: > 10 µM (inactive)
- GI50 [12]: > 10 µM (inactive)
- GI50 [13]: > 10 µM (inactive)
- GI50 [14]: > 10 µM (inactive)
- GI50 [15]: > 10 µM (inactive)
- GI50 [16]: > 10 µM (inactive)
- GI50 [17]: > 10 µM (inactive)
- GI50 [18]: > 10 µM (inactive)
- GI50 [19]: > 10 µM (inactive)
- GI50 [20]: > 10 µM (inactive)
- GI50 [21]: > 10 µM (inactive)
- GI50 [22]: > 10 µM (inactive)
- GI50 [23]: > 10 µM (inactive)
- GI50 [24]: > 10 µM (inactive)
- GI50 [25]: > 10 µM (inactive)
- GI50 [26]: > 10 µM (inactive)
- GI50 [27]: > 10 µM (inactive)
- GI50 [28]: > 10 µM (inactive)
- GI50 [29]: > 10 µM (inactive)
- GI50 [30]: > 10 µM (inactive)
- GI50 [31]: > 10 µM (inactive)
- GI50 [33]: > 10 µM (inactive)
- GI50 [34]: > 10 µM (inactive)
- GI50 [35]: > 10 µM (inactive)
- GI50 [36]: > 10 µM (inactive)
- GI50 [37]: > 10 µM (inactive)
- GI50 [38]: > 10 µM (inactive)
- GI50 [39]: > 10 µM (inactive)
- GI50 [40]: > 10 µM (inactive)
- GI50 [41]: > 10 µM (inactive)
- GI50 [42]: > 10 µM (inactive)
- GI50 [44]: > 10 µM (inactive)
- GI50 [45]: > 10 µM (inactive)
- GI50 [47]: > 10 µM (inactive)
- GI50 [48]: > 10 µM (inactive)
- GI50 [49]: > 10 µM (inactive)
- GI50 [50]: > 10 µM (inactive)
- GI50 [51]: > 10 µM (inactive)
- GI50 [52]: > 10 µM (inactive)
- GI50 [54]: > 10 µM (inactive)
- GI50 [55]: > 10 µM (inactive)
- GI50 [56]: > 10 µM (inactive)

From ChEMBL document CHEMBL1201862, “PubChem BioAssay data set” (2004)
